# Source: patent publication US20020137929A1, “1 - (3-heterocyclylphenyl) isothiourea, -isourea, -guanidine and -amidine herbicidal agents” (Intellectual Property Department, BASF Aktiengesellschaft, priority 1998, published 2002)
# What was measured:
# [1] = system: SAGPY (Arrowhead (Pygmaea)); assay: Preemergence weed control under flooded paddy conditions; assay type: in vivo, Sagittaria pygmaea; conditions: rated 3-4 weeks after treatment
# In short: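 Visual injury scored 0-9 against control three to four weeks post-treatment, greenhouse-grown. Application: acetone/water (50/50) solutions dosed directly into flood water (1.5-3 cm over silt loam, planted top 0.5 cm), roughly 0.0313 to 0.500 kg/ha active ingredient.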
# [2] = system: TRZAWR (Wheat, Winter, cv Riband); assay: Preemergence herbicidal evaluation; assay type: in vivo, Triticum aestivum; conditions: preemergence, rated 4-5 weeks after treatment, 0-9 scale
# In short: (§1)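 Greenhouse preemergence test: seed-soil mix sown on ~1 inch soil; aqueous acetone spray at equivalent of ~0.0156–0.500 kg/ha; greenhouse-held and watered; scored 0–9 visually at 4–5 weeks.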
# CYPIR (Rice Flatsedge) = assay: Preemergence weed control under flooded paddy conditions; assay type: in vivo, Cyperus iria; conditions: rated 3-4 weeks after treatment
# In short: (§2)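 Silt loam, seeds in top 0.5 cm; flood held 1.5-3 cm; test cpd as acetone/water 50/50 into flood water, ~0.0313-0.500 kg/ha a.i.; greenhouse 3-4 wk; visual 0-9 score vs control.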
# [3] = system: ECHORC (Watergrass (Calif.)); assay: as above; assay type: in vivo, Echinochloa oryzoides; conditions: rated 3-4 weeks after treatment
# In short: as §2
# ABUTH (Velvetleaf) = assay: Preemergence herbicidal evaluation; assay type: in vivo, Abutilon theophrasti; conditions: preemergence, rated 4-5 weeks after treatment, 0-9 scale
# In short: as §1
# MOOVA (Monochoria) = assay: Postemergence weed control under flooded paddy conditions; assay type: in vivo, Monochoria vaginalis; conditions: postemergence weeds, rated 3 to 4 weeks after treatment
# In short: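 Weeds 3 to 5 cm tall and rice seedlings at the 1.5 to 2.5 leaf stage were flooded, with water held 1.5 to 3 cm above the soil. Compounds in 50/50 v/v aqueous/acetone went into the flood water at about 0.0313 to 0.500 kg/ha. Visual 0-9 ratings versus control were made 3 to 4 weeks later.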
smiles,measurement,setting,value
"CCOC(=O)CN1C(=O)C(CC(=O)NOC)SC1=Nc1cc(-n2c(=O)cc(C(F)(F)F)n(C)c2=O)c(F)cc1Cl (stereo not drawn) [Compound 83, Ethyl 2-{{2-chloro-5-[3,6-dihydro-3-methyl-2,6-dioxo-4-(trifluoromethyl)-1(2H)-pyrimidinyl]-4-fluorophenyl}imino}-5-[(methoxycarbamoyl)methyl]-4-oxo-3-thiazolidineacetate]",SAGPY herbicidal effect rating,[1]; 0.0313 kg/ha,7.0
same,SAGPY herbicidal effect rating,[1]; 0.0625 kg/ha,7.0
same,SAGPY herbicidal effect rating,[1]; 0.1250 kg/ha,7.0
same,SAGPY herbicidal effect rating,[1]; 0.2500 kg/ha,9.0
same,TRZAWR rating,[2]; 0.0156 kg/ha,0.0
same,TRZAWR rating,[2]; 0.0313 kg/ha,0.0
same,TRZAWR rating,[2]; 0.0625 kg/ha,0.0
same,TRZAWR rating,[2]; 0.1250 kg/ha,0.0
same,TRZAWR rating,[2]; 0.2500 kg/ha,0.0
same,TRZAWR rating,[2]; 0.5000 kg/ha,5.0
same,CYPIR herbicidal effect rating,CYPIR (Rice Flatsedge); 0.0313 kg/ha,5.0
same,CYPIR herbicidal effect rating,CYPIR (Rice Flatsedge); 0.0625 kg/ha,6.0
same,CYPIR herbicidal effect rating,CYPIR (Rice Flatsedge); 0.1250 kg/ha,6.0
same,CYPIR herbicidal effect rating,CYPIR (Rice Flatsedge); 0.2500 kg/ha,7.0
same,ECHORC herbicidal effect rating,[3]; 0.0313 kg/ha,5.0
same,ECHORC herbicidal effect rating,[3]; 0.0625 kg/ha,6.0
same,ECHORC herbicidal effect rating,[3]; 0.1250 kg/ha,7.0
same,ECHORC herbicidal effect rating,[3]; 0.2500 kg/ha,7.0
same,ABUTH rating,ABUTH (Velvetleaf); 0.0156 kg/ha,4.0
same,ABUTH rating,ABUTH (Velvetleaf); 0.0313 kg/ha,6.0
same,ABUTH rating,ABUTH (Velvetleaf); 0.0625 kg/ha,9.0
same,ABUTH rating,ABUTH (Velvetleaf); 0.1250 kg/ha,9.0
same,ABUTH rating,ABUTH (Velvetleaf); 0.2500 kg/ha,9.0
same,ABUTH rating,ABUTH (Velvetleaf); 0.5000 kg/ha,9.0
same,Herbicidal rating MOOVA,MOOVA (Monochoria); Rate 0.0313 kg/ha,9.0
same,Herbicidal rating MOOVA,MOOVA (Monochoria); Rate 0.0625 kg/ha,9.0
same,Herbicidal rating MOOVA,MOOVA (Monochoria); Rate 0.1250 kg/ha,9.0
same,Herbicidal rating MOOVA,MOOVA (Monochoria); Rate 0.2500 kg/ha,9.0
"C=CCN1C(=O)C(CC(=O)NC)SC1=Nc1cc(-n2c(=O)cc(C(F)(F)F)n(C)c2=O)c(F)cc1Cl (stereo not drawn) [Compound 84, 3-Allyl-2-{{2-chloro-5-[3,6-dihydro-3-methyl-2,6-dioxo-4-(trifluoromethyl)-1(2H)-pyrimidinyl]-4-fluorophenyl}imino}-N-methyl-4-oxo-5-thiazolidineacetamide]",SAGPY herbicidal effect rating,[1]; 0.0313 kg/ha,2.0
same,SAGPY herbicidal effect rating,[1]; 0.0625 kg/ha,6.0
same,SAGPY herbicidal effect rating,[1]; 0.1250 kg/ha,7.0
same,SAGPY herbicidal effect rating,[1]; 0.2500 kg/ha,9.0
same,TRZAWR rating,[2]; 0.0156 kg/ha,0.0
same,TRZAWR rating,[2]; 0.0313 kg/ha,0.0
same,TRZAWR rating,[2]; 0.0625 kg/ha,0.0
same,TRZAWR rating,[2]; 0.1250 kg/ha,4.0
same,TRZAWR rating,[2]; 0.2500 kg/ha,6.0
same,TRZAWR rating,[2]; 0.5000 kg/ha,9.0
same,CYPIR herbicidal effect rating,CYPIR (Rice Flatsedge); 0.0313 kg/ha,3.0
same,CYPIR herbicidal effect rating,CYPIR (Rice Flatsedge); 0.0625 kg/ha,7.0
same,CYPIR herbicidal effect rating,CYPIR (Rice Flatsedge); 0.1250 kg/ha,9.0
same,CYPIR herbicidal effect rating,CYPIR (Rice Flatsedge); 0.2500 kg/ha,9.0
same,ECHORC herbicidal effect rating,[3]; 0.0313 kg/ha,4.0
same,ECHORC herbicidal effect rating,[3]; 0.0625 kg/ha,5.0
same,ECHORC herbicidal effect rating,[3]; 0.1250 kg/ha,7.0
same,ECHORC herbicidal effect rating,[3]; 0.2500 kg/ha,9.0
same,ABUTH rating,ABUTH (Velvetleaf); 0.0156 kg/ha,2.0
same,ABUTH rating,ABUTH (Velvetleaf); 0.0313 kg/ha,2.0
same,ABUTH rating,ABUTH (Velvetleaf); 0.0625 kg/ha,7.0
same,ABUTH rating,ABUTH (Velvetleaf); 0.1250 kg/ha,9.0
same,ABUTH rating,ABUTH (Velvetleaf); 0.2500 kg/ha,9.0
same,ABUTH rating,ABUTH (Velvetleaf); 0.5000 kg/ha,9.0
same,Herbicidal rating MOOVA,MOOVA (Monochoria); Rate 0.0313 kg/ha,9.0
same,Herbicidal rating MOOVA,MOOVA (Monochoria); Rate 0.0625 kg/ha,9.0
same,Herbicidal rating MOOVA,MOOVA (Monochoria); Rate 0.1250 kg/ha,9.0
same,Herbicidal rating MOOVA,MOOVA (Monochoria); Rate 0.2500 kg/ha,9.0
"CC(C)OC(=O)CC1SC(=Nc2cc(-n3c(=O)cc(C(F)(F)F)n(C)c3=O)c(F)cc2Cl)N(C)C1=O (stereo not drawn) [Compound 89, Isopropyl 2-{{2-chloro-5-[3,6-dihydro-3-methyl-2,6-dioxo-4-(trifluoromethyl)-1(2H)-pyrimidinyl]-4-fluorophenyl}imino}-3-methyl-4-oxo-5-thiazolidineacetate]",SAGPY herbicidal effect rating,[1]; 0.0313 kg/ha,4.0
same,SAGPY herbicidal effect rating,[1]; 0.0625 kg/ha,5.0
same,SAGPY herbicidal effect rating,[1]; 0.1250 kg/ha,9.0
same,SAGPY herbicidal effect rating,[1]; 0.2500 kg/ha,9.0
same,TRZAWR rating,[2]; 0.0156 kg/ha,0.0
same,TRZAWR rating,[2]; 0.0313 kg/ha,0.0
same,TRZAWR rating,[2]; 0.0625 kg/ha,0.5
same,TRZAWR rating,[2]; 0.1250 kg/ha,2.0
same,TRZAWR rating,[2]; 0.2500 kg/ha,6.5
same,TRZAWR rating,[2]; 0.5000 kg/ha,9.0
same,CYPIR herbicidal effect rating,CYPIR (Rice Flatsedge); 0.0313 kg/ha,0.0
same,CYPIR herbicidal effect rating,CYPIR (Rice Flatsedge); 0.0625 kg/ha,0.0
same,CYPIR herbicidal effect rating,CYPIR (Rice Flatsedge); 0.1250 kg/ha,2.0
same,CYPIR herbicidal effect rating,CYPIR (Rice Flatsedge); 0.2500 kg/ha,4.0
same,ECHORC herbicidal effect rating,[3]; 0.0313 kg/ha,3.0
same,ECHORC herbicidal effect rating,[3]; 0.0625 kg/ha,4.0
same,ECHORC herbicidal effect rating,[3]; 0.1250 kg/ha,5.0
same,ECHORC herbicidal effect rating,[3]; 0.2500 kg/ha,6.0
same,ABUTH rating,ABUTH (Velvetleaf); 0.0156 kg/ha,1.5
same,ABUTH rating,ABUTH (Velvetleaf); 0.0313 kg/ha,6.5
same,ABUTH rating,ABUTH (Velvetleaf); 0.0625 kg/ha,9.0
same,ABUTH rating,ABUTH (Velvetleaf); 0.1250 kg/ha,9.0
same,ABUTH rating,ABUTH (Velvetleaf); 0.2500 kg/ha,9.0
same,ABUTH rating,ABUTH (Velvetleaf); 0.5000 kg/ha,9.0
same,Herbicidal rating MOOVA,MOOVA (Monochoria); Rate 0.0313 kg/ha,9.0
same,Herbicidal rating MOOVA,MOOVA (Monochoria); Rate 0.0625 kg/ha,9.0
same,Herbicidal rating MOOVA,MOOVA (Monochoria); Rate 0.1250 kg/ha,9.0
same,Herbicidal rating MOOVA,MOOVA (Monochoria); Rate 0.2500 kg/ha,9.0
